Measured values taken from PubChem BioAssay AID1963827 (Molecular Pharmacology Branch, DTP, NCI, 2024).
Several values for one entry are separate records, joined by “and”; a condition that tells them apart may be missing. Identical values can stand only once.

System: 994946-033-R-J1-PDC complex spheroid viability
Test: Anticancer human tumor 994946-033-R-J1-PDC patient-derived melanoma cell line growth inhibition [POLQ]
Conditions: for viability, T/C: stronger effect = lower value
Description: Multicellular complex tumor spheroid response to Polymerase (POL) inhibitors (novobiocin, ART-558, RP6685) in combination with a variety of drugs and investigational agents in selected tumor cell lines
The POL inhibitors (novobiocin, ART-558, and RP6685) were evaluated both individually and in combination with standard of care and investigational anticancer small molecules within a complex spheroid model of solid tumors. . Complex spheroids include a stromal component modeled by human endothelial cells (HUVEC) and fibroblasts modeled by human mesenchymal stem cells (MSCs). The concentration ranges selected for each drug and investigational agent were based upon clinically achievable concentrations if the clinical Cmax of the agent was known.
Compounds. The drugs and investigational agents: novobiocin (NSC847541), ART-558 (NSC835418), RP-6685 (NSC848927), peposertib (NSC802822), ceralasertib (NSC780249), elimusertib (NSC800525), camonsertib (NSC841442), AZD-1390 (NSC803789), olaparib (NSC753686), talazoparib (NSC767125), rucaparib (NSC756644), sotorasib (NSC818433), MRTX-1133 (NSC836407), SN-38 (NSC673596), topotecan (NSC609699), epotoside (NSC141540), doxorubicin (NSC123127), gemcitabine (NSC613327), 5-fluorouracil (NSC19893), paclitaxel (NSC125973), vemurafenib (NSC761431), MSA-2 (NSC828583), SN-011 (NSC837082), adavosertib (NSC754352), prexasertib (NSC758257), carboplatin (NSC241240) and oxaliplatin (NSC266046), were obtained from the National Cancer Institute (NCI) Developmental Therapeutics Program Chemical Repository (21). The FDA-approved anticancer drug set is available from the Developmental Therapeutics Program at https://dtp.cancer.gov/organization/dscb/obtaining/. […] The stock solutions were prepared in dimethyl sulfoxide (DMSO, Sigma-Aldrich, St. Louis, MO, cat. D2650), except for the platinum compounds which were prepared in saline (Quality Biological, Gaithersburg, MD, cat. 114-055-101), at 800-fold the tested concentration and stored at -70 degrees C prior to their use. All drugs and investigational agents were tested over a range starting from a high concentration at or near the clinical Cmax and decreasing in half-log increments. If the clinical Cmax for an agent had not been determined, the highest concentration tested was 10 microM, except for SN-38, which was tested at a high concentration of 1 microM.
Cell Culture. All cells were maintained in an incubator at 37 degrees C and 5% CO2 with 95% humidity. The PDC lines were cultured according to standard operating procedures established by the NCI PDMR (https://pdmr.cancer.gov). Table 3 of the manuscript, lists the cell lines along with the number of the three cell types plated to form the mct-spheroids and media for tumor cell growth. After thawing, all PDC lines, except 997537-175-T-J1-PDC and 415267-285-R-J2-PDC, were cultured in Matrigel-coated flasks prepared with a working solution of 1X Ham's F-12 nutrient mix, without supplementation (Thermo Fisher Scientific, cat. 11765054), 100 U/mL penicillin-streptomycin (Thermo Fisher Scientific, cat. 15140122), and 2.5% Matrigel (Corning Inc., Corning, NY, cat. 354248) for the first three passages. The two PDC lines 997537-175-T-J1-PDC and 415267-285-R-J2-PDC were cultured on uncoated flasks. The 857933-349-R-J2-PDC line was cultured in 6C/Colon 1B media containing advanced DMEM/F-12 (Thermo Fisher Scientific, cat. 12634028), 10 mM HEPES (Thermo Fisher Scientific, cat. 15630080), 1X GlutaMAX supplement (Thermo Fisher Scientific, cat. 35050061), 0.1 mg/mL primocin (InvivoGen, San Diego, CA, cat. ant-pm-2), 10% defined fetal bovine serum, heat inactivated (HyClone Laboratories Inc., Logan, UT, cat. SH30070.03HI), 50% L-WRN conditioned media (ATCC, cat. CRL-3276), 1.25 mM N-Acetyl-L-cysteine (Sigma-Aldrich, cat. A9165), 10 mM nicotinamide (Sigma-Aldrich, cat. N0636), 1X B-27 supplement (Thermo Fisher Scientific, cat. 17504044), 1X N-2 supplement (Thermo Fisher Scientific, cat. […]

[1] = curve of first compound, second compound 0.0316 µM
[2] = curve of first compound, second compound 0.1 µM
[3] = curve of first compound, second compound 0.316 µM
[4] = curve of first compound, second compound 1 µM
[5] = curve of first compound, second compound 3.16 µM
[6] = curve of first compound, second compound 10 µM
[7] = second compound 0.0316 µM, first compound 0.0316 µM
[8] = second compound 0.0316 µM, first compound 0.1 µM
[9] = second compound 0.0316 µM, first compound 0.316 µM
[10] = second compound 0.0316 µM, first compound 1 µM
[11] = second compound 0.0316 µM, first compound 3.16 µM
[12] = second compound 0.0316 µM, first compound 10 µM
[13] = second compound 0.1 µM, first compound 0.0316 µM
[14] = second compound 0.1 µM, first compound 0.1 µM
[15] = second compound 0.1 µM, first compound 0.316 µM
[16] = second compound 0.1 µM, first compound 1 µM
[17] = second compound 0.1 µM, first compound 3.16 µM
[18] = second compound 0.1 µM, first compound 10 µM
[19] = second compound 0.316 µM, first compound 0.0316 µM
[20] = second compound 0.316 µM, first compound 0.1 µM
[21] = second compound 0.316 µM, first compound 0.316 µM
[22] = second compound 0.316 µM, first compound 1 µM
[23] = second compound 0.316 µM, first compound 3.16 µM
[24] = second compound 0.316 µM, first compound 10 µM
[25] = second compound 1 µM, first compound 0.0316 µM
[26] = second compound 1 µM, first compound 0.1 µM
[27] = second compound 1 µM, first compound 0.316 µM
[28] = second compound 1 µM, first compound 1 µM
[29] = second compound 1 µM, first compound 3.16 µM
[30] = second compound 1 µM, first compound 10 µM
[31] = second compound 3.16 µM, first compound 0.0316 µM
[32] = second compound 3.16 µM, first compound 0.1 µM
[33] = second compound 3.16 µM, first compound 0.316 µM
[34] = second compound 3.16 µM, first compound 1 µM
[35] = second compound 3.16 µM, first compound 3.16 µM
[36] = second compound 3.16 µM, first compound 10 µM
[37] = second compound 10 µM, first compound 0.0316 µM
[38] = second compound 10 µM, first compound 0.1 µM
[39] = second compound 10 µM, first compound 0.316 µM
[40] = second compound 10 µM, first compound 1 µM
[41] = second compound 10 µM, first compound 3.16 µM
[42] = second compound 10 µM, first compound 10 µM
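Also: spheroids exposed to drugs for 7 days.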
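For viability, T/C in this document: 100% = DMSO vehicle treated spheroids.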

O=c1[nH]cc(F)c(=O)[nH]1 + COC1C(OC(N)=O)C(O)C(Oc2ccc3c(O)c(NC(=O)c4ccc(O)c(CC=C(C)C)c4)c(=O)oc3c2C)OC1(C)C
IC50 [1]: > 10 µM
IC50 [2]: 8.3 µM
IC50 [3]: 7.08 µM
IC50 [4]: > 10 µM
IC50 [5]: 8.98 µM
IC50 [6]: > 10 µM
viability, T/C [7]: 86%
viability, T/C [8]: 130%
viability, T/C [9]: 113%
viability, T/C [10]: 76%
viability, T/C [11]: 60.7%
viability, T/C [12]: 53.7%
viability, T/C [13]: 91.2%
viability, T/C [14]: 93.2%
viability, T/C [15]: 102%
viability, T/C [16]: 82%
viability, T/C [17]: 61.7%
viability, T/C [18]: 47.4%
viability, T/C [19]: 133%
viability, T/C [20]: 99.6%
viability, T/C [21]: 100%
viability, T/C [22]: 71%
viability, T/C [23]: 45.3%
viability, T/C [24]: 53.5%
viability, T/C [25]: 87.6%
viability, T/C [26]: 102%
viability, T/C [27]: 91.8%
viability, T/C [28]: 57%
viability, T/C [29]: 53.7%
viability, T/C [30]: 53.9%
viability, T/C [31]: 124%
viability, T/C [32]: 113%
viability, T/C [33]: 83.7%
viability, T/C [34]: 65.9%
viability, T/C [35]: 60.6%
viability, T/C [36]: 50.4%
viability, T/C [37]: 108%
viability, T/C [38]: 114%
viability, T/C [39]: 90.5%
viability, T/C [40]: 81.1%
viability, T/C [41]: 58.6%
viability, T/C [42]: 61.5%

CC(C)n1c(=O)n(C)c2cnc3cc(F)c(-c4ccc(OCCCN5CCCCC5)nc4)cc3c21
viability, T/C (compound 0.0316 µM): 95.4% and 78.5% and 82.5%
viability, T/C (compound 0.1 µM): 86.1% and 90.5% and 82.5%
viability, T/C (compound 0.316 µM): 93.8% and 117% and 70.9%
viability, T/C (compound 1 µM): 86.5% and 77.2% and 84.3%
viability, T/C (compound 3.16 µM): 56.9% and 68.1% and 62.2%
viability, T/C (compound 10 µM): 21.2% and 41.8% and 25.7%
IC50 (curve of compound): 3.94 µM and 6.87 µM and 4.65 µM

COc1cccc2c1C(=O)c1c(O)c3c(c(O)c1C2=O)CC(O)(C(=O)CO)CC3OC1CC(N)C(O)C(C)O1 (stereo unspecified)
viability, T/C (compound 0.0316 µM): 24.5% and 30.4% and 28.5%
viability, T/C (compound 0.1 µM): 5.96% and 8.53% and 11.6%
viability, T/C (compound 0.316 µM): 2.17% and 5.76% and 2.69%
viability, T/C (compound 1 µM): 1.78% and 1.25% and 2.38%
viability, T/C (compound 3.16 µM): 2.29% and 1.69% and 2.17%
viability, T/C (compound 10 µM): 2.7% and 0.94% and 0.62%
IC50 (curve of compound): < 0.0316 µM

COC1C(OC(N)=O)C(O)C(Oc2ccc3c(O)c(NC(=O)c4ccc(O)c(CC=C(C)C)c4)c(=O)oc3c2C)OC1(C)C (stereo unspecified)
IC50 (compound alone, run of 10/31/2023): > 10 µM

COc1cccc(OCCCN)c1-c1cc(Nc2cnc(C#N)cn2)n[nH]1
viability, T/C (compound 0.00316 µM): 75.6% and 100% and 79.2%
viability, T/C (compound 0.01 µM): 60.5% and 80.8% and 75.1%
viability, T/C (compound 0.0316 µM): 14.7% and 28.4% and 65.5%
viability, T/C (compound 0.1 µM): 29.1% and 32.4% and 35.9%
viability, T/C (compound 0.316 µM): 28.6% and 28.5% and 17.2%
viability, T/C (compound 1 µM): 16.6% and 16.5% and 12.6%
IC50 (curve of compound): 0.0137 µM and 0.0197 µM and 0.0575 µM

O=c1[nH]cc(F)c(=O)[nH]1 + Nc1ccc(C#CCN(C(=O)Cc2ncc(C(F)(F)F)cc2C(F)(F)F)c2ccc(F)cc2)nn1
IC50 [1]: > 10 µM
IC50 [2]: > 10 µM
IC50 [3]: > 10 µM
IC50 [4]: > 10 µM
IC50 [5]: 5.54 µM
IC50 [6]: > 10 µM
viability, T/C [7]: 104%
viability, T/C [8]: 114%
viability, T/C [9]: 92.5%
viability, T/C [10]: 67.9%
viability, T/C [11]: 62.8%
viability, T/C [12]: 54%
viability, T/C [13]: 101%
viability, T/C [14]: 75.6%
viability, T/C [15]: 93.7%
viability, T/C [16]: 81%
viability, T/C [17]: 60.1%
viability, T/C [18]: 68.9%
viability, T/C [19]: 81.9%
viability, T/C [20]: 81.1%
viability, T/C [21]: 104%
viability, T/C [22]: 70.8%
viability, T/C [23]: 76.1%
viability, T/C [24]: 63.1%
viability, T/C [25]: 100%
viability, T/C [26]: 83.1%
viability, T/C [27]: 116%
viability, T/C [28]: 61.1%
viability, T/C [29]: 66.8%
viability, T/C [30]: 50.8%
viability, T/C [31]: 97.2%
viability, T/C [32]: 112%
viability, T/C [33]: 81.2%
viability, T/C [34]: 85.3%
viability, T/C [35]: 49.2%
viability, T/C [36]: 47%
viability, T/C [37]: 111%
viability, T/C [38]: 51.9%
viability, T/C [39]: 86.9%
viability, T/C [40]: 67.6%
viability, T/C [41]: 75.3%
viability, T/C [42]: 42.4%
